Data on 10 compounds can be found in PubChem BioAssay (NCI).

SMILES strings stand for the structures. Several values for one entry are separate records, joined by “and”; a condition that tells them apart may be missing. Identical values can stand only once.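 Cultured in 96-well plates, cells were exposed to test compound for 48 hours across five concentrations. GI50 marks 50% less growth. Definition used: TGI = concentration required for complete inhibition of growth.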 Where a SMILES comes first, the peptide text is derived from it. The star is where a group is joined. Trt = c1ccc(C(c2ccccc2)(c2ccccc2)*)cc1; Cbz = O=C(OCc1ccccc1)*

Test systems include A498 renal; EKVX NSCLC; HL-60(TB) leukemia; K-562 leukemia; MOLT-4 leukemia; NCI-H522 lung; OVCAR-4 ovarian; SF-268 CNS; SK-MEL-28 melanoma; T-47D breast.
What all share (experiment): NCI tumour cell line growth inhibition, 48 h

As for `O=C1CC2OCC=C3CN4CCC56c7ccccc7N1C5C2C3CC46O` (configuration not stated), the TGI in the assay on A498 renal, in the assay with EKVX NSCLC, with HL-60(TB) leukemia, with K-562 leukemia, in the assay with MOLT-4 leukemia and in the assay with NCI-H522 lung was more than 100 µM in each case. The TGI in the assay on OVCAR-4 ovarian, in the assay on SF-268 CNS, with SK-MEL-28 melanoma and in the assay on T-47D breast was more than 100 µM each time.

As for `Cc1ccc(CNc2ccc(Br)cc2)cc1`, the TGI in the assay with A498 renal is more than 100 µM; in the assay on EKVX NSCLC it was more than 100 µM; with HL-60(TB) leukemia, more than 100 µM; in the assay on K-562 leukemia, more than 100 µM; in the assay with MOLT-4 leukemia it was more than 100 µM; in the assay with NCI-H522 lung it was 43.9 µM. The TGI in the assay with SF-268 CNS, in the assay on SK-MEL-28 melanoma and with T-47D breast was more than 100 µM in each case.

For `CCOC(=O)CSc1cc(Cl)c(C)cc1S(=O)(=O)/N=C(/N=C/c1ccc([N+](=O)[O-])s1)NNC`, the GI50 in the assay on EKVX NSCLC was 19.7 µM; in the assay on HL-60(TB) leukemia, 21.7 µM; in the assay on MOLT-4 leukemia it was 16.7 µM; with NCI-H522 lung it was 30.2 µM; with OVCAR-4 ovarian, 20.7 µM; in the assay on SF-268 CNS, 29.8 µM. Besides, the GI50 with SK-MEL-28 melanoma was 16.1 µM; with T-47D breast, 12.5 µM. The TGI was 49.2 µM in the assay on EKVX NSCLC; 53.7 µM in the assay with HL-60(TB) leukemia; 44.3 µM in the assay on MOLT-4 leukemia; 79.7 µM in the assay with NCI-H522 lung; 62.4 µM with OVCAR-4 ovarian; more than 100 µM in the assay with SF-268 CNS. The TGI in the assay on SK-MEL-28 melanoma came to 29.7 µM; in the assay with T-47D breast, 40.1 µM.

As for `C[C@@]1([C@H](OC(=O)c2ccccc2)C(N)=O)CO1`, the GI50 with A498 renal was 33.8 µM; in the assay on EKVX NSCLC, 24.2 µM; in the assay on K-562 leukemia, 5.67 µM; with MOLT-4 leukemia, 35.7 µM; in the assay with NCI-H522 lung, 22.2 µM; in the assay with OVCAR-4 ovarian, 37.6 µM. Besides, the GI50 is 19.4 µM in the assay on SF-268 CNS, 20.6 µM in the assay with SK-MEL-28 melanoma and 30.4 µM in the assay with T-47D breast. In addition, the TGI was 88.3 µM in the assay with A498 renal; 62.4 µM in the assay on EKVX NSCLC; more than 100 µM in the assay on K-562 leukemia; more than 100 µM in the assay with MOLT-4 leukemia; 76.5 µM in the assay with NCI-H522 lung; more than 100 µM with OVCAR-4 ovarian. The TGI in the assay on SF-268 CNS amounted to 50 µM; in the assay on SK-MEL-28 melanoma, 53.2 µM; in the assay on T-47D breast, 83.3 µM.

For the compound `COC(=O)C(CO)NC(=O)C(CSC(c1ccccc1)(c1ccccc1)c1ccccc1)NC(=O)OCc1ccccc1` (configuration not stated) (Cbz-Cys(Trt)-Ser-OMe; configuration not given here), the TGI with EKVX NSCLC was 41.1 µM; with HL-60(TB) leukemia it was more than 43.6 µM; in the assay with K-562 leukemia it was more than 49 µM; with MOLT-4 leukemia, more than 32.1 µM; in the assay on NCI-H522 lung, 34.3 µM; with OVCAR-4 ovarian it was more than 50.2 µM. Besides, the figures for the TGI in the assay on SF-268 CNS, in the assay with SK-MEL-28 melanoma and in the assay with T-47D breast were 44.9 µM, 34 µM and more than 52 µM, respectively.

On to `CC(=O)Nc1ccc(C(=O)CCl)cc1`, for which the GI50 in the assay on HL-60(TB) leukemia was 2.4 µM; with K-562 leukemia, 2.48 µM; in the assay with MOLT-4 leukemia, 2.92 µM; in the assay with NCI-H522 lung it was 2.06 µM; in the assay with OVCAR-4 ovarian, 2.07 µM; in the assay with SF-268 CNS, 13.9 µM. Besides, the values for the GI50 in the assay on SK-MEL-28 melanoma and in the assay with T-47D breast were 2.49 µM and 2.68 µM, respectively. Further, the TGI in the assay on HL-60(TB) leukemia stood at 5.86 µM; in the assay on K-562 leukemia, 5.88 µM; with MOLT-4 leukemia, 7.06 µM; in the assay with NCI-H522 lung, 4.17 µM; with OVCAR-4 ovarian, 4.06 µM; in the assay with SF-268 CNS, 29.5 µM. The TGI turned out to be 7.54 µM with SK-MEL-28 melanoma and 7.33 µM in the assay on T-47D breast.

Regarding `COc1cccc(/C=C/C(=O)c2ccc3cc(OC)ccc3c2)c1`, the GI50 in the assay on EKVX NSCLC was 13 µM; with HL-60(TB) leukemia, 17.5 µM; with K-562 leukemia it was 9.13 µM; with OVCAR-4 ovarian, 24.7 µM; in the assay on SF-268 CNS, 15.5 µM; with SK-MEL-28 melanoma, 12.6 µM. In addition, in the assay on T-47D breast, the GI50 was 10.7 µM. Besides, the TGI in the assay on EKVX NSCLC was 40.8 µM; with HL-60(TB) leukemia, more than 50 µM; in the assay with K-562 leukemia, more than 50 µM; in the assay on OVCAR-4 ovarian, more than 50 µM; in the assay on SF-268 CNS it was more than 50 µM; with SK-MEL-28 melanoma, 48.1 µM. In the assay on T-47D breast, the TGI is 25.7 µM.

As to `C=C1C[C@H]2C=Nc3cc(OCCCOc4cc5c(cc4OC)C(=O)N4CC(=C)C[C@H]4C=N5)c(OC)cc3C(=O)N2C1`, the TGI with A498 renal is 0.0578 µM; in the assay on K-562 leukemia, 3.44 µM; in the assay on MOLT-4 leukemia, 0.00105 µM; in the assay with NCI-H522 lung it was 0.0309 µM; in the assay with OVCAR-4 ovarian, 0.0191 µM; in the assay with SK-MEL-28 melanoma, 0.0436 µM. The compound further gave a TGI with T-47D breast of 3.53 µM. Moreover, the GI50 with EKVX NSCLC was 0.0665 µM and 0.0182 µM; in the assay on HL-60(TB) leukemia, 0.000245 µM; in the assay with OVCAR-4 ovarian it was less than 0.012 µM; with T-47D breast, 0.0244 µM.

Turning to `CSC1=NC(=Nc2c(C)cccc2C)C2(CCC(C(C)(C)C)CC2)N1c1ccc(Cl)cc1` (configuration not stated), the GI50 in the assay on A498 renal was more than 100 µM; with HL-60(TB) leukemia it was 7.94 µM; in the assay with K-562 leukemia, 4.76 µM; in the assay with MOLT-4 leukemia, 6.82 µM; in the assay on OVCAR-4 ovarian, more than 100 µM; in the assay with SF-268 CNS, 32.5 µM. In addition, the GI50 with SK-MEL-28 melanoma was 99.6 µM; in the assay on T-47D breast, 20.8 µM. Also, the TGI in the assay on A498 renal, in the assay with HL-60(TB) leukemia, in the assay on K-562 leukemia, in the assay on MOLT-4 leukemia, with OVCAR-4 ovarian and in the assay on SF-268 CNS was more than 100 µM each time. The TGI with SK-MEL-28 melanoma and with T-47D breast was more than 100 µM in each case.

Regarding `COc1cc2oc(-c3cccc(C(=O)Nc4ccc(Cl)cc4)c3)cc(=O)c2c(OC)c1OC`, the GI50 was 2 µM with A498 renal; 2.43 µM in the assay on EKVX NSCLC; 2.77 µM in the assay with K-562 leukemia; 2.22 µM in the assay with MOLT-4 leukemia; 1.73 µM in the assay on NCI-H522 lung; 3.05 µM in the assay on OVCAR-4 ovarian. Besides, the GI50 in the assay with SF-268 CNS is 4.66 µM; in the assay with SK-MEL-28 melanoma it was 1.84 µM; in the assay with T-47D breast, 1.68 µM. Besides, the TGI with A498 renal is 7.82 µM; in the assay with EKVX NSCLC, more than 100 µM; in the assay with K-562 leukemia, more than 100 µM; with MOLT-4 leukemia it was more than 100 µM; with NCI-H522 lung it was more than 100 µM; with OVCAR-4 ovarian, more than 100 µM. Also, the TGI with SF-268 CNS was more than 100 µM; in the assay with SK-MEL-28 melanoma, 5.89 µM; in the assay on T-47D breast it was more than 100 µM.
